{"source": "paper PMC11061835", "about": "“Elucidating the Mechanism of Metabolism of Cannabichromene by Human Cytochrome P450s” (Journal of Natural Products, 2024)", "key": {"[1]": {"assay": "In vivo metabolism of CBC, mouse blood plasma (LC-MS/MS)", "design": "species or system mice", "procedure": "CBC was dissolved in ethanol, and an aliquot was then mixed with Tween-80. Ethanol was removed by evaporation. The mixture was then reconstituted with PBS to a 6% final concentration of Tween-80. C 57BL/6J female mice, age 8–10 weeks, were injected with 20 mg/kg CBC or vehicle intravenously (IV, n = 3) via the tail vein or intraperitoneally (IP, n = 3). Blood samples were collected terminally by cardiac puncture into heparin-coated syringes at 0.5 and 2 h after CBC treatment and transferred into tubes. The tubes were then centrifuged, and plasma samples were removed and stored at −80 °C.\n200 μL of blood plasma from each sample was taken into a glass tube, and 500 μL of extraction solvent (hexane:ethyl acetate 80:20 v/v) was added. The remaining extraction steps are similar to those used for CBC metabolite extraction from CYPs as mentioned earlier.\nSamples were analyzed with the 5500 QTRAP LC/MS/MS system (Sciex, Framingham, MA) in the Metabolomics Lab of Roy J. Carver Biotechnology Center, University of Illinois at Urbana–Champaign. Software Analyst 1.7.1 was used for data acquisition and analysis. The 1200 series HPLC system (Agilent Technologies, Santa Clara, CA) includes a degasser, an autosampler, and a binary pump. The LC separation was performed on a Phenomenex Gemini C6-phenyl column (2 × 100 mm, 3 μm) with mobile phase A (0.1% formic acid in water) and mobile phase B (0.1% formic acid in acetonitrile). The flow rate was 0.2 mL/min. The linear gradient was as follows: 0–2 min, 95% A; 10 min, 50% A; 20–25 min, 0% A; 25.1–31 min, 95% A. The autosampler was set at 10 °C. The injection volume was 5 μL. Mass spectra were acquired under positive electrospray ionization (ESI) with the ion spray voltage of +5000 V. The source temperature was 400 °C. The curtain gas, ion source gas 1, and ion source gas 2 were 325, 65, and 55 psi, respectively. Multiple reaction monitoring (MRM) was used for quantitation: CBC m/z 315.1 → m/z 135.0; 1-acetoxy-6′,7′-dihydroxy-CBC (JM-I-73) m/z 349.1→ m/z 193.0; 1″-hydroxy-CBC (JM-I-66) m/z 331.1→ m/z 275.1; 6′,7′-epoxy-CBC (JM-I-27) m/z 331.1→ m/z 193.0; 7′,10′-ene-6′-hydroxy-CBC (JM-I-30) m/z 331.1→ m/z 193.0; 8′-hydroxy-CBC (JM-I-32) […]→ m/z 77.0. Internal standard EET-EA-d11 was monitored at m/z 375.2→ m/z 357.1."}, "CYP2C9": {"test_system": "CYP2C9", "assay": "CBC metabolism by CYP2C9", "type": "in vitro ADME, human", "procedure": "(§1) To study the kinetics of CBC metabolism, concentration dependent metabolism of CBC was carried out in the presence of various CYPs using the following procedure. CYP2J2, CYP2C8, CYP2D6, CYP2C9, and CYP3A4 (final concentration 0.5 μM) were initially dissolved in lipid containing POPC:POPS (8:2 v/v) followed by addition of CPR (final concentration 0.6 μM) in 0.1 M potassium phosphate buffer (pH 7.4). CBC (5–80 μM) was added and incubated at 37 °C for 10 min. The reaction was triggered by NADPH and extracted using the exact sample protocol as mentioned in the HLM section.\n(§2) Samples were analyzed with the 5500 QTRAP LC/MS/MS system (Sciex, Framingham, MA) in the Metabolomics Lab of Roy J. Carver Biotechnology Center, University of Illinois at Urbana–Champaign. Software Analyst 1.7.1 was used for data acquisition and analysis. The 1200 series HPLC system (Agilent Technologies, Santa Clara, CA) includes a degasser, an autosampler, and a binary pump. […] Multiple reaction monitoring (MRM) was used for quantitation: CBC m/z 315.1 → m/z 135.0; 1-acetoxy-6′,7′-dihydroxy-CBC (JM-I-73) m/z 349.1→ m/z 193.0; 1″-hydroxy-CBC (JM-I-66) m/z 331.1→ m/z 275.1; 6′,7′-epoxy-CBC (JM-I-27) m/z 331.1→ m/z 193.0; 7′,10′-ene-6′-hydroxy-CBC (JM-I-30) m/z 331.1→ m/z 193.0; 8′-hydroxy-CBC (JM-I-32) […]→ m/z 77.0. Internal standard EET-EA-d11 was monitored at m/z 375.2→ m/z 357.1."}, "CYP2D6": {"biological_target": "CYP2D6 (Homo sapiens, UniProt P10635)", "sequence (P10635 whole entry)": "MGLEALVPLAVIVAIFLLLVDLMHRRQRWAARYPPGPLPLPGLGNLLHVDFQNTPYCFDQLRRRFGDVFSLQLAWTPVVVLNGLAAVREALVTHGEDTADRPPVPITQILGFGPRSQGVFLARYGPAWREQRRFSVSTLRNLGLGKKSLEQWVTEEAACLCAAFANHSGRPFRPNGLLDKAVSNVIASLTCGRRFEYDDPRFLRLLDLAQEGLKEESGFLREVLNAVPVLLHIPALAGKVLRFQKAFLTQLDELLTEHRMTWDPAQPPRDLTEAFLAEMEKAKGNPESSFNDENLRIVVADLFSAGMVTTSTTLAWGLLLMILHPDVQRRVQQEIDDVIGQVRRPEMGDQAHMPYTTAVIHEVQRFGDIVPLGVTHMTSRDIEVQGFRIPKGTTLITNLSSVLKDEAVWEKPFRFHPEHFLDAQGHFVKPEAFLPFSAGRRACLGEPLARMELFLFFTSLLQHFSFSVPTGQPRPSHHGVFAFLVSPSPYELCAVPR", "sequence (P16435 whole entry partner)": "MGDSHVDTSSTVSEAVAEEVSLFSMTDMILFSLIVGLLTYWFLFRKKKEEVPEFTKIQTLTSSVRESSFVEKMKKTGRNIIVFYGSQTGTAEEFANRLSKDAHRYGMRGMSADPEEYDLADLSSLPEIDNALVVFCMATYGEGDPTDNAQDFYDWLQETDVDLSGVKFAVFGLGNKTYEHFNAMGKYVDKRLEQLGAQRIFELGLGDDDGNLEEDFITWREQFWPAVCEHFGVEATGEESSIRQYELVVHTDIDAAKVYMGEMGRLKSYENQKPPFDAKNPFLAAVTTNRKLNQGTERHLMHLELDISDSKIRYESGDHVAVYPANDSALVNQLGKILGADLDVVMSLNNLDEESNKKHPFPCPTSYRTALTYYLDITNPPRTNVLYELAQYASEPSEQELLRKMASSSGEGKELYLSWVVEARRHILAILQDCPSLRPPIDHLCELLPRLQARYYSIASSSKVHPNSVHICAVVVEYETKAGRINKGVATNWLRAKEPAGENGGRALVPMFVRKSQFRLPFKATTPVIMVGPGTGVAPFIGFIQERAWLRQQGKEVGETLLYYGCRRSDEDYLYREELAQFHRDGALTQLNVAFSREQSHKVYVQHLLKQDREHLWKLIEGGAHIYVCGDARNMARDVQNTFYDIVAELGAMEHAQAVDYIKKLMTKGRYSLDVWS", "assay": "CBC metabolism by CYP2D6", "type": "in vitro ADME", "design": "His-tag; made in house; host or cells: E. coli DH-5α with pTGro7 plasmid (CYP)", "procedure": "as §1, §2"}, "CYP2J2": {"biological_target": "T1, CYP2J2 (Homo sapiens, UniProt P51589)", "T1 construct": "His-tag; made in house; host or cells: E. coli DH-5α with pTGro7 plasmid", "T1 sequence (P51589 1-502)": "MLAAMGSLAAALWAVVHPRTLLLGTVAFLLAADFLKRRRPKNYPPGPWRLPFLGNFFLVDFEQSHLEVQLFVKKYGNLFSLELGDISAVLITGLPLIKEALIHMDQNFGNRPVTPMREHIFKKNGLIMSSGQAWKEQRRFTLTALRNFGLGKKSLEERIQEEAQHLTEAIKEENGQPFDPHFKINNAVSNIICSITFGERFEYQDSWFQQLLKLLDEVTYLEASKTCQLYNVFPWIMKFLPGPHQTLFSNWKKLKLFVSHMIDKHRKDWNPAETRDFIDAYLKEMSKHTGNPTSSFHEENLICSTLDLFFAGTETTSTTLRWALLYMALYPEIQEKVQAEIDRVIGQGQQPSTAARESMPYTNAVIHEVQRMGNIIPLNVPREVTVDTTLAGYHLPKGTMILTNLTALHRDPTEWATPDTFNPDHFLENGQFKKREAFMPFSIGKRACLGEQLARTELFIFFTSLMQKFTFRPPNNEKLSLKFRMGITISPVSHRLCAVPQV", "assay": "Spectroscopic titration (Soret shift), CYP2J2", "type": "binding", "conditions": "CYP2J2, absence of CPR", "procedure": "CBC binding to various CYPs was determined by analyzing the Soret shift from ∼417 to ∼390 nm. CBC (stock 10 mM) was dissolved in ethanol and titrated with different CYPs at room temperature. Buffer-exchanged CYP2J2, CYP2D6, CYP3A4, and CYP2C8 (concentrations of proteins were kept between 4 and 5 μM) were dissolved in 0.1 M phosphate buffer (pH = 7.4), and initial spectra were recorded from 200 to 800 nm with a prominent peak at 417 nm. The concentration of CBC was varied from 0 to 100 μM keeping the final concentration of substrate in EtOH not more than 1% in cuvette. 0–4 μL of stock CBC was added using a Hamilton syringe in both the sample and blank cuvettes. The mixture was incubated for 5 min at 37 °C, and absorbance spectra were recorded using a Cary Bio 300 UV–vis spectrophotometer (Agilent Technologies, Santa Clara, CA). To eliminate the background absorbance, we derived the final spectra by […]."}, "[2]": {"design": "method as in PMID 28640062", "conditions": "patients who consumed a CBD oil, cited from earlier work"}}, "note": "pKd: −log10 of the molar value. Where “and” joins values, the source holds several entries; their conditions need not be identical. Equal entries are not always repeated.", "data": [{"compound": "CCCCCc1cc(O)c2c(c1)OC(C)(CC/C=C(\\C)CO)C=C2", "note": "(stereo not drawn) [8′-hydroxy-CBC]", "values": [{"measurement": "detection as product of CBC metabolism in mouse plasma", "setting": "[1]; mice, CBC 20 mg/kg IV or IP, plasma at 0.5 and 2 h", "value": "detected"}, {"measurement": "detection in blood plasma after 2 h of CBC administration", "setting": "[1]; mice, both IP and IV, 2 h", "value": "not detected"}, {"measurement": "plasma concentration relative to the 6′,7′-epoxy compound", "setting": "[1]; mouse plasma 0.5 h after CBC 20 mg/kg, depending on mode of administration (IP or IV)", "value": "4–8 times"}, {"measurement": "extent of 8′-hydroxy-CBC formation relative to 6′,7′-epoxy-CBC", "setting": "CYP2C9", "value": "approximately half"}, {"measurement": "preference for 8′-hydroxy-CBC formation compared to 6′,7′-epoxy-CBC", "setting": "CYP2D6", "value": "3–4 times"}]}, {"compound": "CCCCCc1cc(O)c2c(c1)OC(C)(CCC=C(C)C)C=C2", "note": "(stereo not drawn) [CBC, Cannabichromene]", "values": [{"measurement": "ΔAmax (spin state change due to heme perturbation)", "setting": "CYP2J2", "value": "0.04 ± 0.00 and ~0.04"}, {"measurement": "pKd", "setting": "CYP2J2; read-out: Kd(app)", "value": "5.51 and ~5.52"}, {"measurement": "detectable level of CBC in plasma", "setting": "[2]; plasma", "value": "~60", "unit": "ng/mL"}, {"measurement": "detectable level of CBC in urine", "setting": "[2]; urine", "value": "~94", "unit": "ng/mL"}]}]}
